Key:
[1] = system: human P-selectin-IgG chimera; test: Flow chamber assay, attachment of HL-60 cells to P-selectin; format: cell-based; set-up: dose or concentration left out as unconfirmed; conditions: flow shear 1 dyne/cm^2; after 5 minutes continuous flow
Description: (§1) Flow Chamber Assay/Cell Adhesion and Rolling under Flow Conditions
(§2) To assess the capability of compound of formula (I) to inhibit cell binding under dynamic conditions resembling the flow in a blood vessel, flow chamber assays addressing/testing binding of HL-60 cells/various cell lines to P-selectin, and E-selectin chimeric molecules are performed.
(§3) Cell attachment under flow conditions is determined using a parallel flow chamber system. […]
(§4) After washing with assay buffer (“Roswell Park Memorial Institute 1640” (RPMI 1640)+10 mM HEPES) the dish is fitted into a parallel plate laminar flow chamber (sold from Glycotech, Rockville, Md.) and mounted on an inverted phase-contrast microscope (sold from Olympus, Hamburg, Germany) equipped with a CCD camera (JVC) that is connected to a PC. […] The flow rate is then decreased resulting in a calculated flow shear of 1 dyne/cm^2. Video sequences of 10 low power fields are digitally recorded after 5 minutes continuous flow. The percentage of inhibition is calculated from the mean number of cells per field that attached to the coated dish surface in the presence versus absence of compound of formula (I) of at independent experiments. […]

[2] = system: Jurkat T-cells (attachment to E-Selectin); test: Modulation of T-cells: flow chamber assay with pre-treated Jurkat cells, E-selectin; format: cell-based; conditions: cells pre-incubated 5 minutes with compound, washed twice; flow chamber as Example 2
Description: (§5) Cell attachment under flow conditions is determined using a parallel flow chamber system. A 35 mm polystyrene culture dish is coated for 1 h at room temperature with coating buffer (50 mM tris-(hydroxymethyl) aminomethane buffer (Tris), 150 mM NaCl, 2 mM CaCl2; pH 7.4) containing human E- or P-selectin-IgG chimera at concentrations of […], respectively. After removal of the coating solution non specific binding sites are blocked for an additional hour with 1% BSA in coating buffer at room temperature.
as §4

[3] = system: Jurkat T-cells (attachment to P-Selectin); test: Modulation of T-cells: flow chamber assay with pre-treated Jurkat cells, P-selectin; format: cell-based; conditions: cells pre-incubated 5 minutes with compound, washed twice; flow chamber as Example 2
Description: as §5, §4

[4] = Skin penetration, parallel artificial membrane permeability assay (skin-PAMPA); format: in vitro ADME
Description: To predict passive human skin permeability of compound of formula (I) a parallel artificial membrane permeability assay is performed that mimics the main barrier properties of human stratum corneum (skin-PAMPA).
The filter of the donor compartment of a hydrophobic PVDF 96-well microtiter filter plate (Millipore, Schwalbach, Germany) is coated with a mixture of 70% silicone and 30% isopropyl myristate dissolved in hexane. After evaporation of solvent the donor compartment is filled with buffer (pH 4) containing compound of formula (I) and assembled to the acceptor compartment filled with buffer (pH 4). The assembled plate is incubated at room temperature for 16 hours. Absorbance of compound of formula (I) in the dissembled acceptor compartment is measured with a photometer (Spectramax, Molecular Devices, Sunnyvale, Calif., USA). Permeation (% flux) of compound of formula (I) through the coated filter (artificial membrane) is calculated based on equilibrium absorbance.

[5] = biological target: T1, human L-Selectin-IgG-chimera (Homo sapiens, UniProt P14151); test: Sialyl Lewis^X Tyrosine Sulfate Assay (sLe^X TSA), L-selectin; conditions: binding of L-selectin chimera to sLe^X-tyrosine sulfate polyacrylamide
T1 construct: fused on or other part: human IgG Fc part, fused on as a capture and dimerising handle (captured by goat anti human Fc antibody)
T1 sequence (P14151 39-318 limits assumed): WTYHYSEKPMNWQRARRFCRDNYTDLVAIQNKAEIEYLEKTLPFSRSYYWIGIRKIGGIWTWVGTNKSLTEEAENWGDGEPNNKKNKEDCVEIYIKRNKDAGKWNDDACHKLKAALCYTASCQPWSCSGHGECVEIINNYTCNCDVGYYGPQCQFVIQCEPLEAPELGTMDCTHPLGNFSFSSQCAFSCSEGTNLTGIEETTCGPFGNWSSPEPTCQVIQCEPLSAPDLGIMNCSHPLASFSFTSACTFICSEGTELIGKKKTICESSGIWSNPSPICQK
Description: Sialyl Lewis^X Tyrosine Sulfate Assay (sLe^X TSA):
Compound of formula (I) is assayed on a molecular level for the ability to inhibit the binding of P- and L-selectin chimeric molecules to sLe^X and tyrosinesulfate residues linked to a polymeric matrix as a PSGL-1 substitute. IC50-values are determined.
Microtiter plates are coated overnight in carbonate buffer pH9.6 with goat anti human Fc mAB (10 μg/ml). After washing in assay buffer (25 mM 4-(2-hydroxyethyl)-1-piperazineethanesulfonic acid (HEPES), 150 mM NaCl, 1 mM CaCl2 pH7.4) and blocking (3% bovine serum albumin (BSA) in assay buffer) plates are incubated for 2 h at 37° C. with human P-Selectin-IgG-chimera (0.61 nM respectively 150 ng/mL) or human L-Selectin-IgG-chimera (0.61 nM respectively 89 ng/mL). 5 μl of sLe^X-tyrosine sulfate polyacrylamide (1 mg/ml) carrying 15% sLe^X, 10% Tyrosine-sulfate and 5% biotin is complexed with 20 μl Streptavidin-Peroxidase solution (1 mg/ml) and 25 μl assay buffer without CaCl2. […]
After incubation for 2 h at 37° C., wells are washed for six times with in assay buffer incl. […] Bound sLe^X-Tyrosine sulfate ligand complex is determined by measuring optical density at 450 nm vs. 620 nm in a Fusion alpha-FP reader (sold from Packard Bioscience, Dreieich, Germany). […]

[6] = system: neutrophil infiltration into the peritoneum; test: Thioglycollate-induced peritonitis in mice; format: in vivo
Description: The compound of formula (I) is investigated in a thioglycollate-induced peritonitis model in mice employing standard method (see A. E. R. Hicks et al., J. Leukoc. Biol. 2005, 77, 59-66; M. C. Montesinos et al., Arthritis Res. Ther. 2006, 8(2): R53-R59).
Groups of 10 male mice weighting 24±2 g are used. Peritonitis is induced by intraperitoneal (i.p.) injection of 1 ml 4% thioglycollate medium in 0.9% NaCl to cause neutrophil infiltration into the peritoneum. The compound of formula (I) is dissolved in DMSO, diluted with PBS (phosphate buffered saline) and adjusted to neutral pH with NaOH. The solution of the compound of formula (I) and vehicle is administered intravenously (i.v.) 15 minutes or by oral gavage (p.o.) 60 minutes before thioglycollate medium challenge. The steroid compound Dexamethasone (3 mg/kg, p.o.; known product for rheumatoid arthritis) as the positive control compound is administered by oral gavage 60 minutes before thioglycollate medium challenge.
After 4 hr of induction, neutrophil counts are determined by Automated Hematology Analyzer (provider: Sysmex, XT-2000i equipped with XT-2000iV software) in peritoneal lavage (3 ml PBS) harvested from animals sacrificed by CO2 asphyxiation.
Normal control groups are mock induced by i.p. injection of 0.9% NaCl Inhibition of 30% or more (≧30) in the neutrophil count relative to the vehicle control is considered significant and indicates possible anti-inflammatory activity.
The compound of formula (I) is administered i.v. in different doses, 25 mg/kg, 10 mg/kg, 5 mg/kg, 1 mg/kg, 0.5 mg/kg and 0.25 mg/kg. The compound of formula (I) is also administered p.o. in different doses, 500 mg/kg, 250 mg/kg, 100 mg/kg, 50 mg/kg, 25 mg/kg, 10 mg/kg, 5 mg/kg and 1 mg/kg.

[7] = system: human E-selectin-IgG chimera; test: Flow chamber assay, attachment of HL-60 cells to E-selectin; format: cell-based; set-up: dose or concentration left out as unconfirmed; conditions: flow shear 1 dyne/cm^2; after 5 minutes continuous flow
Description: as §1, §2, §3, §4

[8] = biological target: T2, human P-Selectin-IgG-chimera (Homo sapiens, UniProt P16109); test: Sialyl Lewis^X Tyrosine Sulfate Assay (sLe^X TSA), P-selectin; conditions: binding of P-selectin chimera to sLe^X-tyrosine sulfate polyacrylamide
T2 construct: fused on or other part: human IgG Fc part, fused on as a capture and dimerising handle (captured by goat anti human Fc antibody)
T2 sequence (P16109 42-195 limits assumed): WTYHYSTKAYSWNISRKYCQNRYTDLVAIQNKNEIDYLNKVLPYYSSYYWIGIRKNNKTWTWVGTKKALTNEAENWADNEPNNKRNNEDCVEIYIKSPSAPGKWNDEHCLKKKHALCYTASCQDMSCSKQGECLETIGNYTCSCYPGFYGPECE
Description: IC50-values are determined.
Microtiter plates are coated overnight in carbonate buffer pH9.6 with goat anti human Fc mAB (10 μg/ml).
After incubation for 2 h at 37° C., wells are washed for six times with in assay buffer incl. 0.005% Polyoxyethylenesorbitan monolaurate (TWEEN 20), developed for 10-15 min with 20 μl 3,3′,5,5′-tetramethylbenzidine (TMB)/H202 substrate solution and stopped with 20 μl 1 M H2SO4.

Permeation (% flux) ([4]; 70% silicone / 30% isopropyl myristate membrane, pH 4, room temperature, 16 hours) [%] | skin penetration (in words) ([4]; skin-penetration assay, Example 4) | IC50 [5] [mM] | IC50 [8] [mM] | Molecule | % inhibition of attachment of HL-60 cells, P-Selectin [1] [%] | % inhibition of attachment of Jurkat cells (pre-treated), E-Selectin [2] [%] | % inhibition of attachment of Jurkat cells (pre-treated), P-Selectin [3] [%] | inhibition of neutrophil influx compared with dexamethasone (3 mg/kg, p.o.) ([6]; depending on the dose) | inhibition of neutrophil influx (in words) ([6]; i.v. 0.25-25 mg/kg or p.o. 1-500 mg/kg, inhibition of 30% or more considered significant) | inhibition of neutrophil influx (inhibition rate) ([6]; i.v. and p.o. at different doses before thioglycollate, neutrophil count 4 hr after induction) | % inhibition of attachment of HL-60 cells, E-Selectin [7] [%]
>60 | high penetration | 1.25 | 0.189 | CCN(CC)C(=O)/C(C#N)=C/c1cc(O)c(O)c([N+](=O)[O-])c1 [compound of formula (I), (2E)-2-cyano-3-(3,4-dihydroxy-5-nitrophenyl)-N,N-diethylacrylamide] | 36 | 30 | 39 | comparable or better | significant inhibition of neutrophil influx | more than 30% | 30
 |  | > 3.6 |  | sialyl Lewis X [sLe^X] |  |  |  |  |  |  | 

Reference: patent US20100190851A1, “Use of Entacapone in cosmetic, dermatological and pharmaceutical compositions” (priority 2007, published 2010)
